According to PMC4957076, “Shared mechanism of teratogenicity of anti-angiogenic drugs identified in the chicken embryo model” (Scientific Reports, 2016):
Like-named read-outs stand apart in the source and are kept apart here.

How the values were obtained:
chicken embryos [1] = conditions: for survival rate: 48 hours post drug application
Method: We then administered the compounds to developing chicken embryos to observe any teratogenic effects. […] At 48 hours post drug application both the survival rate and the incidence of defects were analyzed. A range of concentrations was tested to determine the effects and optimal concentration that was not 100% lethal.
Fertilized white leghorn chicken embryos purchased from Henry Stewart Ltd. (Herefordshire, United Kingdom) were maintained in an incubator as described previously. At Hamburger and Hamilton stage 18–20 (E2.5-3)[54] the eggs were windowed and the embryos were prepared for drug exposure. To establish a dose response the drugs were applied once to the embryos and growth was monitored as described previously. In a second set of experiments, filter paper squares were cut 100 μm × 100 μm and soaked in the compound of interest for 10 minutes. While the filter paper squares absorbed the solution, embryonic membranes were removed and the sponge was then placed onto the limb bud. The eggs were sealed with tape and returned to an incubator. The embryos were checked daily for developmental defects and to ensure the filter paper squares remained in place. Control embryos were treated with 100 μL PBS with 0.1% DMSO. Embryos were removed from the eggs and fixed in 5% TCA at 4 degrees for 24 hours. Embryos were then washed in alcian blue for 8 hours, and placed in acid ethanol over night before being dehydrated in 100% ethanol for three one hour treatments. The tissue was then cleared in methyl salicylate. Cartilage was imaged and subsequently measured using a graticule scale and ImageJ. A minimum of 8 embryos was used per drug, per concentration. All animal work was licensed and carried out in accordance with and with approval of UK Home Office and Institutional ethical and welfare guidelines.

[2] = system: fli1:EGFP zebrafish embryos; test: fli1:EGFP zebrafish embryo exposure: survival and intersegmental vessel development; type: in vivo; conditions: for survival: 24 hours after exposure; for relative potency in reducing vessel outgrowth: concentration gradient, within 24 hours of drug exposure
Method: We then examined the extent and nature of the anti-angiogenic effects of the compounds using transgenic fli1:EGFP zebrafish embryos. The vasculature of these fish is tagged with EGFP and the transparency of the zebrafish allows for visualization of the forming blood vessels and any effect of anti-cancer drugs on their development over time (Fig. 4). A known anti-angiogenic and teratogenic compound (CPS49) was screened alongside the drugs as a positive control at 10 μg/mL (30 μM), a previously established anti-angiogenic concentration.
fli1:EGFP zebrafish were obtained from the Zebrafish international Resource Centre[29] and maintained in an approved aquarium habitat at 28 °C. At 24 hours post fertilization (hpf) the embryos were checked for GFP expression using a fluorescent microscope and manually dechorionated with forceps, exposed to either a vehicle control, or an anti-angiogenic anti-cancer compound (at 24 hpf) for 24 hours and imaged at 48 hpf. At this point the embryos were anaesthetized in 0.1% tricaine and the length and number of intersegmental vessels (ISV) were quantified as previously described. A minimum of 10 embryos were screened per drug, per concentration, and experiments were performed in triplicate.

Rat = conditions: cited from earlier work; for Systemic exposure (AUC) compared to human exposure: exposure at which defects were produced
Rabbit = conditions: cited from earlier work; for Systemic exposure (AUC) compared to human exposure: exposure at which defects were produced
[3] = human; cited from earlier work
HUVEC cells = test: Endothelial cell proliferation assay (CCK-8); type: cell-based, Human; conditions: 18 hours exposure, CCK-8 assay, n = 9
Method: Anti-angiogenic drugs were screened in a concentration gradient in the HUVEC culture assay. […] Cell proliferation was assessed using a CCK-8 assay (Dojindo). Statistical analysis by two-way Anova. Error represents the standard error of the mean.
HUVEC cells were purchased from ATCC (Manassas, VA) and cultured as previously described. No further authentication was performed. Cells were seeded at 6.5 × 10^4 cells per well in 100 μL of medium per well. Drugs were diluted in prewarmed DMEM. Serial dilutions were performed from 1000–0.1 nM. The cells were left to grow for 18 hours with exposure to vehicle control (DMSO) or drugs. Experiments were done in triplicate each time. Cellular proliferation was assessed using a CCK-8 assay (Dojindo, Rockville, MD). All plates were read at 450 nm.

Mouse = conditions: cited from earlier work
chicken embryos [4] = conditions: cited from earlier work
[5] = system: Mouse (strain specific) Rabbit; set-up: method as in PMID 11006136; conditions: cited from earlier work
[6] = 2.5 μg/embryo, global treatment

| Compound | survival rate (chicken embryos [1]; 5 μg/embryo, global treatment) | survival rate (chicken embryos [1]; 10 μg/embryo, global treatment) [%] | Defects produced in chicken embryos (chicken embryos [1]; in vivo) | defects observed in treated embryos (chicken embryos [1]; in vivo) | survival ([2]; 10 μg/mL) | survival ([2]; 50 μg/mL) | survival ([2]; 100 μg/mL) | relative potency in reducing vessel outgrowth [2] | Defects produced (Rat; Rat) | Systemic exposure (AUC) compared to human exposure (Rat; Rat) [×] | Defects produced (Rabbit; Rabbit) | Systemic exposure (AUC) compared to human exposure (Rabbit; Rabbit) [×] | Clinical Toxicities [3] | IC50 (HUVEC cells; Homo sapiens) [µM] | Defects produced in chicken embryos (chicken embryos [1]; Table 1 summary) | other results |
| --- | --- | --- | --- | --- | --- | --- | --- | --- | --- | --- | --- | --- | --- | --- | --- | --- |
| CO[C@H]1C[C@@H]2CC[C@@H](C)[C@@](O)(O2)C(=O)C(=O)N2CCCC[C@H]2C(=O)O[C@H]([C@H](C)C[C@@H]2CC[C@@H](OCCO)[C@H](OC)C2)CC(=O)[C@H](C)/C=C(\C)[C@@H](O)[C@@H](OC)C(=O)[C@H](C)C[C@H](C)/C=C/C=C/C=C/1C [Everolimus, everolimus] | 80% | 62.5 | Embryolethality increased, limb, spine, microopthalmia, necrosis of YSM | hemorrhaging, spinal cord twisting and necrosis in the YSM | did not impact the survival | did not impact the survival | 35.71% | least potent | Increased resorption, pre- and post-implantation loss, decreased numbers of live fetuses, malformation and retarded skeletal development | 0.04 | Increased resorptions | 1.6 | Stomatitis, noninfectious pneumonitis, rash, hyperglycemia and immunosuppression | < 0.01 | – | – |
| Cc1ccc(Nc2nccc(N(C)c3ccc4c(C)n(C)nc4c3)n2)cc1S(N)(=O)=O [Pazopanib, pazopanib] | 30% | – | – | malformation of the blood vessels and necrosis in the YSM, and twisted spinal cords | did not affect the survival | 83.33% | 50% | most potent | Teratogenic, embryotoxic, fetotoxic & abortifacient. Cardiovascular malformations, incomplete/absent ossification, reduced fetal body weight, pre- and post-implantation embryolethality | 0.1 | Increased post-implantation loss, abortion, 100% litter loss | 0.02 | Cardiotoxicity | – | Embryolethality increased, limb, spine, necrosis of YSM | survival rate (chicken embryos [1]; 1 μg/embryo, global treatment): 16%; survival rate (chicken embryos [1]; [6]): 22%; IC50, endothelial cell proliferation (HUVEC cells): one of the highest IC50s in vitro |
| CNC(=O)c1ccccc1Sc1ccc2c(/C=C/c3ccccn3)n[nH]c2c1 [Axitinib, axitinib] | no embryos survived | – | – | – | 40% | 42.12% | 38.89% | – | – | – | – | – | Cardiotoxicity | – | Embryolethality increased, limb, growth inhibition, necrosis of YSM | survival rate (chicken embryos [1]; [6]): 55.5%; defects observed in treated embryos (chicken embryos [1]; global treatment, surviving embryos): most embryos exhibited necrosis within the surrounding YSM and hemorrhaging; Systemic exposure (AUC) compared to human exposure (Mouse; Mouse/Mice): 10×; Defects produced (Mouse; mouse, in vivo): Increased post implantation loss, cleft palate malformation, variation in skeletal ossification |
| COc1cc2c(Nc3ccc(Br)cc3F)ncnc2cc1OCC1CCN(C)CC1 [Vandetanib, vandetanib] | no death occurred | 74 | – | limb reductions, micropthalmia, twisted spinal cords, and necrosis and hemorrhaging in the YSM | 60% | 15.38% | 10% | least potent | Increased pre- & post-implantation loss, malformations of heart vessels, skeletal variations, delayed ossification of the skull, vertebrae & sternum. | – | – | – | Cardiotoxicity | – | Embryolethality increased, limb, spine, microopthalmia, necrosis of YSM | – |
| CCN(CC)CCNC(=O)c1c(C)[nH]c(/C=C2\C(=O)Nc3ccc(F)cc32)c1C [Sunitinib, sunitinib] | 72% | – | Embryolethality increased, limb, spinal, microopthalmia, growth inhibition, necrosis of YSM | in most embryos limb defects were observed, some also exhibited microopthalmia and spinal cord twisting | 61.90% | 21.05% | 0% | most potent | – | 5.5 | – | 0.3 | Cardiotoxicity | < 0.01 | – | Defects produced (Rat; rat, in vivo): Embryolethality increased, fetal skeletal malformations (ribs/vertebrae); Defects produced (Rabbit; rabbit, in vivo): Increased embryolethality, cleft palate malformations |
| Nc1cccc2c1C(=O)N(C1CCC(=O)NC1=O)C2=O (stereo not shown) [pomalidomide] | – | – | – | – | – | – | – | – | – | – | – | – | – | – | – | teratogenicity in chicken embryos (chicken embryos [4]; at potent anti-inflammatory doses): not teratogenic |
| O=C1c2c(F)c(F)c(F)c(F)c2C(=O)N1c1ccc(F)cc1F [CPS49] | – | – | – | – | 50% | – | – | – | – | – | – | – | – | – | Embryolethality, cranial hemorrhaging, micropthalmia, limb defects, spine | anti-angiogenic activity in chicken embryo (chicken embryos [4]; 10 μg/embryo): potent anti-angiogenic activity; blood vessel outgrowth and number of forming vessels ([2]; 10 μg/mL (30 μM), versus vehicle control 0.1% DMSO): significant reduction in both blood vessel outgrowth and the number of forming vessels; IC50 (HUVEC cells): < 0.05 µM |
| bevacizumab | – | – | – | – | – | – | – | – | – | – | – | – | – | – | – | embryotoxicity in rats (Rat; rat, in vivo): embryotoxicity; placental transfer in rats (Rat; rat, in vivo): dose-dependent placental transfer; teratogenicity in rabbits (Rabbit; rabbit, in vivo, iv): teratogenicity |
| CNC(=O)c1cc(Oc2ccc(NC(=O)Nc3ccc(Cl)c(C(F)(F)F)c3)cc2)ccn1 [Sorafenib, sorafenib] | 54.5% | 47 | Embryolethality increased, limb, growth inhibition, necrosis of YSM | – | 18.18% | 15.38% | No embryos survived | most potent | Increased post implantation loss, resorptions, skeletal retardations, retarded fetal weight | 0.008 | Increased post implantation loss, resorptions, skeletal retardations, retarded fetal weight | 0.008 | Cardiotoxicity | < 0.05 | – | – |
| O=C1CCC(N2C(=O)c3ccccc3C2=O)C(=O)N1 (stereo not shown) [Thalidomide, thalidomide] | – | – | – | – | – | – | – | – | – | – | – | – | Somnolence, constipation, neuropathy, venous thromboembolism and rash/unknown | – | – | Defects produced in chicken embryos (chicken embryos [4]; thalidomide not tested in this paper): Embryolethality, cranial hemorrhaging, micropthalmia, limb defects, spine; Defects produced [5]: Increased resorptions, embryotoxicity, eye defects; Systemic exposure (AUC) compared to human exposure [5]: At recommended human dose/Not applicable |
